Results: publication PMC7801115, “Preclinical in vitro screening of newly synthesised amidino substituted benzimidazoles and benzothiazoles” (Journal of Enzyme Inhibition and Medicinal Chemistry, 2021)

What was measured:
A549 [1] = assay: BrdU proliferation assay, 2D cell culture; assay type: cell-based; settings: Homo sapiens, A549, 2D cell culture, ±SD, N = 2
Experimental: Cells were grown in 96 well cell star polystyrene plates. 10,000 cells/well were seeded in wells 4 h prior the treatment with different compounds concentrations and incubated for 72 h. A cell viability assay was performed according to the manufacturer’s instruction, using CellTiter 96 aqueous solution, MTS kit (Promega, Madison, WI, USA). After 0.5–2 h of cell incubation with MTS in 2 D cell culture, the plates were read using PE EnVision absorbance at 490 nm. The results for each of tested compounds are reported as growth percentages from two independent concentrations curves compared with the untreated control cells after drug exposure. Since we prefer homogeneous assays (mix and read procedures) and therefore MTS is more practical (one step less than MTT). MTS is more sensitive and accurate in comparison with MTT assay.
(§1) Proliferation assay was performed using Cell Proliferation ELISA, BrdU (Sigma, St. Louis, MO, USA). Briefly, 48 h hours after compound addition, 10 µM of BrdU was added to each well and incubated for following 24 h. After incubation, single cell suspension was made for 3 D cell culture in the new 96 well plate. Plates were centrifuged and supernatants were removed from each plate (for 2 D and 3 D cell culture) followed by 60 min incubation at 60° C. The rest of the proliferation assay was performed according to the manufacturer instructions.
(§2) Calculation of IC50 data, curves and QC analysis is made by using Excel tools and GraphPadPrism software (La Jolla, CA), v. 5.03. In brief, individual concentration–effect curves are generated by plotting the logarithm of the tested concentration of tested compounds (X) versus corresponding percent inhibition values (Y) using least squares (ordinary) fit. […] QC criteria parameters (Z', S:B, R2, HillSlope) were checked for every IC50 curve.

A549 [2] = assay: BrdU proliferation assay, 3D cell culture; assay type: cell-based; settings: Homo sapiens, A549, 3D cell culture, ±SD, N = 2
Experimental: (§3) Cells were grown in 96 well Perfecta 3 D hanging drop plates 5000 cell/well for 4 days until spheres were formed (and checked under the microscope). After sphere formation cells were treated with compounds followed by 72 h incubation. Cell viability assay was performed according to the manufacturer’s instruction, using CellTiter GLO 3 D for 3 D cell culture (Promega); cell incubation was 5 min on the shaker followed by 25 min incubation in the dark. Plates were read using PE EnVision luminescence. The results for each of tested compounds are reported as growth percentages from two independent concentrations curves compared with the untreated control cells after drug exposure.
as §1, §2

NCI-H358 = assay: BrdU proliferation assay, 3D cell culture; assay type: cell-based; settings: Homo sapiens, NCI-H358, 3D cell culture, ±SD, N = 2
Experimental: as §3, §1, §2

[3] = Metabolic stability in liver microsomes; assay type: in vitro ADME; settings: 60 min
Experimental: Tested compounds (final concentration of 1 µM, 0.1% DMSO), as well as testosterone and propranolol as positive controls and caffeine as negative control were incubated in phosphate buffer (50 mM, pH 7.4) for 60 min at 37 °C with liver microsomes (human and mouse) in the absence and presence of the NADPH cofactor. The NADPH generating system was prepared in phosphate buffer and consisted of nicotinamide adenine dinucleotide phosphate (NADP, 0.38 mM), glucose-6-phosphate (1.49 mM), glucose-6-phosphate dehydrogenase (1.5 U) and magnesium chloride (0.1 mM). Aliquots were taken at different time points (0, 10, 20, 30, 45 and 60 min) and reaction was terminated by addition of a MeCN/MeOH (2:1) mixture, containing diclofenac as internal standard. Samples were then centrifuged (at 4500 rpm, at 4 °C, for 30 min) and resulting supernatants were subjected to LC-MS/MS analysis. The in vitro half life (t½) was determined from the slope of the linear regression of ln % parent compound remaining versus incubation time. In vitro intrinsic clearance, expressed as µl/min/mg liver, was determined from in vitro half life (t½) and normalised for the protein concentration in the incubation mixture. Predicted in vivo hepatic clearance was determined from in vitro intrinsic clearance assuming 52.5 mg of protein/g of liver and using constant values for liver weight/body weight [g/kg] (25.7 for human, 87.5 for mouse) and liver blood flow (LBF) [ml/min/kg] (21 for human and 131 for mouse).
(§4) All ADME samples were analysed on a Sciex API 4000 or Sciex API4500 Triple Quadrupole Mass Spectrometer (Sciex, Framingham, MA, USA) coupled to a UHPLC System (Shimadzu Nexera X2; Shimadzu, Kyoto, Japan). Samples were injected onto an UPLC column (HALO2 C18, 2.1 × 20 mm, 2 µm or Phenomenex Luna Omega Polar C18, 30 × 2.1 mm, 1.6 µm) and eluted with a gradient at temperature of 50 °C. The mobile phase was composed of acetonitrile (with 0.1% formic acid) and 0.1% formic acid in deionised water. A total run time was 1 or 1.5 min, with the flow rate of 0.7 ml/min (under gradient conditions). A positive ion mode with turbo spray, an ion source temperature of 500 °C and a dwell time of 150 ms were utilised for mass spectrometric detection. Multiple reaction monitoring (MRM) was used at the specific transitions for each compound/control tested: compound 5c: 361.9 → 304.9; compound 5d: 344.8 → 287.9; compound 5e: 349.8 → 292.9; compound 5 g: 350.8 → 293.9; compound 5 h: 344.0 → 286.9; compound 6a: 276.9 → 220.0; compound 5 b: 319.0 → 262.0; compound 6 b: 302.1 → 245.1; compound 6c: 344.9 → 288.0; compound 6d: 333.0 → 276.0; compound 6e: 316.1 → 259.0; compound 6f: 327.1 → 270.0; compound 6 g: 377.1 → 320.1; testosterone: 289.3→ 97.1; propranolol: 260.1 → 182.8; caffeine: 195.2 → 138.1; acebutolol: 337.2 → 116.2, nicardipine: 480.2 → 315.0; verapamil: 455.4 → 165.1; amprenavir: 506.2 → 245.4; diclofenac: 296.1 → 213.7 or 296.2 → 215.3; eucatropine: 292.2 → 109.1; benfluorex: 352.1 → 230.3, and warfarin: 309.2 → 163.2

Stability in plasma = assay type: in vitro ADME; settings: 37 °C
Experimental: Tested compounds (final concentration of 5 µM, 0.5% DMSO) were incubated for 4 h at 37 °C in human and mouse plasma, respectively. Aliquots were taken at different time points (0, 30, 120 and 240 min) and reaction was terminated by addition of a MeCN/MeOH (2:1) mixture, containing internal standard (diclofenac). Samples were then centrifuged (at 4500 rpm, at 4 °C, for 30 min) and resulting supernatants were subjected to LC-MS/MS analysis. The same procedure was followed for controls used in the assay: propranolol (both species), benfluorex (mouse) and eucatropine (human), respectively.
as §4

Row | SMILES | IC50 (A549 [1]) [µM] | IC50 (A549 [2]) [µM] | IC50 (NCI-H358) [µM] | Microsomes (1 µM) Predicted in vivo hep CL, Human [3] [%LBF] | Microsomes (1 µM) Predicted in vivo hep CL, Mouse [3] [%LBF] | remaining at 4 h, 5 µM (Stability in plasma; human plasma) [%] | remaining at 4 h, 5 µM (Stability in plasma; mouse plasma) [%] | melting point [°C]
1 | c1ccc2sc(-c3nc4cc(C5=NCCCN5)ccc4[nH]3)cc2c1 [Compound 6d, 2-(Benzo[b]thiophen-2-yl)-5(6)–(3,4,5,6-tetrahydropyrimidin-1-ium-2-yl)benzimidazole chloride] | > 50 | > 100 | > 100 | <30 | 71 | 95 | 92 | 
2 | Cl.c1ccc2nc(-c3nc4ccc(C5=NCCCN5)cc4s3)ccc2c1 [Compound 5d, 2-(Quinoline-2-yl)-6–(3,4,5,6-tetrahydropyrimidin-1-ium-2-yl)benzothiazole chloride] | 1 | 16 ± 1.3 | 13 ± 1.65 | <30 | <30 | 81 | 85 | > 300
3 | c1ccc2c(c1)cc(-c1nc3cc(C4=NCCCN4)ccc3[nH]1)c1ccccc12 [Compound 6g, 2-(Phenanthrene-9-yl)-5(6)–(3,4,5,6-tetrahydropyrimidin-1-ium-2-yl)benzimidazole chloride] | > 50 | > 100 | > 100 | <30 |  | 85 | 81 | 
4 | c1ccc(-c2nc3cc(C4=NCCCN4)ccc3[nH]2)cc1 [Compound 6a, 2-Phenyl-5(6)–(3,4,5,6-tetrahydropyrimidin-1-ium-2-yl)benzimidazole chloride] | 11 ± 5.56 | 12 ± 0.28 | 3 ± 1.41 | 56 | 41 | 73 | 79 | 
5 | Cl.c1ccc2sc(-c3nc4ccc(C5=NCCCN5)cc4s3)cc2c1 [Compound 5e, 2-(Benzo[b]thiophen-2-yl)-6–(3,4,5,6-tetrahydropyrimidin-1-ium-2-yl)benzothiazole chloride] | 16 ± 0.39 | 23 ± 6.24 | 5 ± 0.81 | <30 |  | 82 | 77 | > 300
6 | c1ccc2cc(-c3nc4cc(C5=NCCCN5)ccc4[nH]3)ccc2c1 [Compound 6f, 2-(Naphthalene-2-yl)-5(6)–(3,4,5,6-tetrahydropyrimidin-1-ium-2-yl)benzimidazole chloride] | > 50 | > 100 | > 100 | <30 | 77 | 106 |  | 
7 | N#Cc1ccc(-c2nc3cc(C4=NCCCN4)ccc3[nH]2)cc1 [Compound 6b, 2–(4-Cyanophenyl)-5(6)–(3,4,5,6-tetrahydropyrimidin-1-ium-2-yl)benzimidazole chloride] | > 50 | > 100 | > 100 | <30 | <30 | 98 | 119 | 
8 | Cl.FC(F)(F)c1ccc(-c2nc3ccc(C4=NCCCN4)cc3s2)cc1 [Compound 5c, 2–(4-Trifluoromethylphenyl)-6–(3,4,5,6-tetrahydropyrimidin-1-ium-2-yl)benzothiazole chloride] | 48 ± 0.73 | 13 ± 0.78 | 4.31 | <30 | <30 | 83 | 94 | 279 to 283
9 | c1ccc2c(-c3nc4ccc(C5=NCCCN5)cc4[nH]3)c[nH]c2c1 [Compound 6e, 2-(1H-Indol-3-yl)-5(6)–(3,4,5,6-tetrahydropyrimidin-1-ium-2-yl)benzimidazole chloride] | > 50 | > 100 | > 100 | <30 | 78 | 98 | 84 | 
10 | Cl.N#Cc1ccc(-c2nc3ccc(C4=NCCCN4)cc3s2)cc1 [Compound 5b, 2–(4-Cyanophenyl)-6–(3,4,5,6-tetrahydropyrimidin-1-ium-2-yl)benzothiazole chloride] | > 50 | 87 ± 0.11 | > 100 | <30 | <30 | 86 | 95 | > 300
11 | Cl.c1ccc2sc(-c3nc4ccc(C5=NCCCN5)cc4s3)nc2c1 [Compound 5g, 2-(Benzothiazole-2-yl)-6–(3,4,5,6-tetrahydropyrimidin-1-ium-2-yl)benzothiazole chloride] | 7 ± 2.31 | 14 ± 3.07 | 7 ± 2.33 | <30 | <30 | 86 | 81 | > 300
12 | FC(F)(F)c1ccc(-c2nc3cc(C4=NCCCN4)ccc3[nH]2)cc1 [Compound 6c, 2–(4-Trifluoromethylphenyl)-5(6)–(3,4,5,6-tetrahydropyrimidin-1-ium-2-yl)benzimidazole chloride] | > 50 | > 100 | > 100 | <30 | <30 | 96 | 94 | 
